Test results taken from ChEMBL document CHEMBL1201862, “PubChem BioAssay data set” (2004).
Active and inactive are the calls of the source.

Key:
[1] = A cytotoxicity screen of small molecule inhibitors of the PhoP region in Salmonella typhi identified in the primary screen. [Related pubchem assays: 1850, 1864, 1985 ]; format: functional
[2] = NIH3T3 cell viability loss – ATP luminescence, mouse fibroblasts, counter-screen, dose response (AID 2010); format: functional, cell-based;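 also: cells exposed to compound for about 90 hours before reading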
[3] = target: T1, DNA repair protein RAD52 homolog (Homo sapiens, UniProt P43351); format: functional, biochemical
T1 sequence (P43351 whole entry): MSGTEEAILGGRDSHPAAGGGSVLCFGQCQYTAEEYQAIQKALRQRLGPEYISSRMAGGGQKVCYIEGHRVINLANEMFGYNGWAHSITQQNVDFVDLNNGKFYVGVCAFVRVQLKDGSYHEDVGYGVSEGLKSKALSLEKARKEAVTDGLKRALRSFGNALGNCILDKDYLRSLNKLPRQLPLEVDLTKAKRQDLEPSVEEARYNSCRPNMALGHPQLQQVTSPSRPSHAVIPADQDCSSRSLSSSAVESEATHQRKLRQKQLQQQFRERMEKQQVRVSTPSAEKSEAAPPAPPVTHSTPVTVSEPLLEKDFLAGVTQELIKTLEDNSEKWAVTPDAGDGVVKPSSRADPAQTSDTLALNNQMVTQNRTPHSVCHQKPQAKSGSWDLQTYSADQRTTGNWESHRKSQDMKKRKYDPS

[4] = Trypanosoma cruzi growth suppression in host cells – NIH3T3 host cells, beta-gal luminescence, confirmation (AID 2044); format: functional, cell-based;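 also: intracellular parasites grown in NIH/3T3 mouse fibroblasts as host cells; luminescent beta-galactosidase reporter signal from transgenic T. cruzi replicating inside host cells; inhibitors lower the luminescence signal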
[5] = target: T2, RNA-binding protein pos-1 (Caenorhabditis elegans, UniProt G5EF15); test: disruptors of C. elegans POS-1 RNA interaction – biochemical, fluorescence polarization, dose response (AID 1964);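 also: purified POS-1 fused to maltose binding protein made in E. coli; potency of compounds blocking POS-1 binding to fluorescent RNA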
T2 sequence (G5EF15 whole entry): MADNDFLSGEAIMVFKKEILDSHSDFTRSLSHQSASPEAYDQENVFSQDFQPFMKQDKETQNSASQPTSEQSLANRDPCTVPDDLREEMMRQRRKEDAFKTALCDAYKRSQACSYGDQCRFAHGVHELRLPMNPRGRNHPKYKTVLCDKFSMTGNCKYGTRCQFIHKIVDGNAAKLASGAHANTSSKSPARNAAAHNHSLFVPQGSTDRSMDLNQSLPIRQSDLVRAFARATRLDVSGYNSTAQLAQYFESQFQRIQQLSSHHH

[6] = target: T3, Zinc finger protein mex-5 (Caenorhabditis elegans, UniProt Q9XUB2); test: potency of MEX-5 RNA-binding blockers – biochemical, C. elegans, fluorescence polarization, dose response (AID 1960)
T3 sequence (Q9XUB2 whole entry): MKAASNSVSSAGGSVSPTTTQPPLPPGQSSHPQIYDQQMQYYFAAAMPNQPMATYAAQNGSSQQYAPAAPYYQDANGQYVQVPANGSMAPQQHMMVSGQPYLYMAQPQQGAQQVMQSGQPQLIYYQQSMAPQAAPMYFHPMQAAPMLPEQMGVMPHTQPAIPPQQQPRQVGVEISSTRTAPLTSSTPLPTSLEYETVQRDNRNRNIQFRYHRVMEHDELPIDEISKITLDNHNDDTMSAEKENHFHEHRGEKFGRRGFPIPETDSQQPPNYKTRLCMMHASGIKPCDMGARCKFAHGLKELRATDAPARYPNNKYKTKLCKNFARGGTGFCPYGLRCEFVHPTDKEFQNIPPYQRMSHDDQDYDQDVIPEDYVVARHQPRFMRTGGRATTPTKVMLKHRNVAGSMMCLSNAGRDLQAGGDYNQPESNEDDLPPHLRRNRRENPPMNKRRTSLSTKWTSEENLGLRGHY

[7] = target: Voltage-dependent T-type calcium channel subunit alpha-1H (Homo sapiens, UniProt O95180); format: functional;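 also: channel activity triggered by adding a high calcium stimulation buffer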
[8] = target: Glyceraldehyde-3-phosphate dehydrogenase (Homo sapiens, UniProt P04406)
[9] = Luminescence Cell-Based Dose Confirmation HTS to Identify Inhibitors of Platelet Dense Granule Release. [Related pubchem assays: 1663 (Primary HTS), 1678 (Summary of Project)]; format: functional
cells = format: functional
[10] = target: Luciferin 4-monooxygenase (Photinus pyralis, UniProt P08659); test: inhibition of purified Photinus pyralis luciferase – biochemical, luminescence, dose response (AID 1891)
[11] = target: T4, Heat shock factor protein 1 (Mus musculus, UniProt P38532); test: decrease of HSF1-responsive luciferase luminescence – cell-based, NIH3T3, dose retest, confirmation (AID 2382); format: functional;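 also: NIH3T3 fibroblasts with HSF1-driven luciferase reporter stressed by proteasome inhibitor MG132; luminescence from HSF1-driven luciferase expression after 8 hours of MG132 stress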
T4 sequence (P38532 whole entry): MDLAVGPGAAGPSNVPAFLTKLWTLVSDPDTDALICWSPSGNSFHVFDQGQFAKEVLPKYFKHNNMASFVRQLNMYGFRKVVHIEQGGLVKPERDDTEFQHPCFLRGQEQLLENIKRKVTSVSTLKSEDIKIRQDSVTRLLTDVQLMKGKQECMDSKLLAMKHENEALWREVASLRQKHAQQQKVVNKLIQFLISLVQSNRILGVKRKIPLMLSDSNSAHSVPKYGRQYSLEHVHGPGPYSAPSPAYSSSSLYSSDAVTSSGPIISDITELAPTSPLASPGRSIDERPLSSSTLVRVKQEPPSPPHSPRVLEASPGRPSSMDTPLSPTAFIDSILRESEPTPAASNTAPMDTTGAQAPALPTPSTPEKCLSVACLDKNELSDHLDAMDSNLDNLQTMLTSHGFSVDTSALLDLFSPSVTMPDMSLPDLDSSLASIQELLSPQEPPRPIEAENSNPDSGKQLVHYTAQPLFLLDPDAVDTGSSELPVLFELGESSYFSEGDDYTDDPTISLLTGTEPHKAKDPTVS

[12] = target: T5, Calpain-2 catalytic subunit (Sus scrofa, UniProt P43367); test: m-calpain protease blockers, concentration series – biochemical, fluorogenic peptide substrate, dose response (AID 1420); format: functional
T5 sequence (P43367 whole entry): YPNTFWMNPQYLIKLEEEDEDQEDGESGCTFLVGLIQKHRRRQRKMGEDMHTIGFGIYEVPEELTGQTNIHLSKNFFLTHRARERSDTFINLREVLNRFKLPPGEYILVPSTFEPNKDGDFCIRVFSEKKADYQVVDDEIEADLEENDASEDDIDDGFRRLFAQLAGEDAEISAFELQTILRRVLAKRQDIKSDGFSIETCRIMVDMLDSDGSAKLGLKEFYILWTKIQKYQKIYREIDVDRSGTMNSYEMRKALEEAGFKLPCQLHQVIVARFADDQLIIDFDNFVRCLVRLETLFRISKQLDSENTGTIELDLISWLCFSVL

[13] = target: T6, Ubiquitin-conjugating enzyme E2 N (Homo sapiens, UniProt P61088); format: functional;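 also: Dose-response confirmation in a TR-FRET assay detecting UBC13-driven polyubiquitin chain formation, inhibition measured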
T6 sequence (P61088 whole entry): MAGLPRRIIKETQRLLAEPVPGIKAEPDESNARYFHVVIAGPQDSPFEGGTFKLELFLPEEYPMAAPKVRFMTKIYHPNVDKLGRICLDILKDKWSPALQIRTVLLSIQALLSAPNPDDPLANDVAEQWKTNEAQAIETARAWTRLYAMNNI

[14] = growth inhibition of yeast DHODH-expressing 3D7 parasites – SYBR Green, dry powder samples, dose response (AID 1159570); format: functional, cell-based;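 also: parasite growth measured after 72 hours of compound exposure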
[15] = P. falciparum Dd2 growth inhibitors, dose response, SYBR Green, cherry-picked samples (AID 1159567); format: functional, cell-based
[16] = Dd2 malaria parasite growth inhibition potency – SYBR Green, dry powder samples, dose response (AID 1159566); format: functional, cell-based;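 also: potency for growth inhibition with lower SYBR green DNA signal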
[17] = growth inhibition of PfATP4-mutant resistant parasites – NITD609-resistant line, SYBR Green, dry powder, dose response (AID 1159571); format: functional, cell-based;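 also: parasites synchronized at ring stage by sorbitol before testing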
[18] = target: T7, Short transient receptor potential channel 4 (Mus musculus, UniProt Q9QUQ5); test: calcium entry via TRPC4 opening agents – cell-based, HEK293 TRPC4/mu-opioid, Fluo-4 calcium, dose response (AID 434937); format: functional
T7 sequence (Q9QUQ5 whole entry): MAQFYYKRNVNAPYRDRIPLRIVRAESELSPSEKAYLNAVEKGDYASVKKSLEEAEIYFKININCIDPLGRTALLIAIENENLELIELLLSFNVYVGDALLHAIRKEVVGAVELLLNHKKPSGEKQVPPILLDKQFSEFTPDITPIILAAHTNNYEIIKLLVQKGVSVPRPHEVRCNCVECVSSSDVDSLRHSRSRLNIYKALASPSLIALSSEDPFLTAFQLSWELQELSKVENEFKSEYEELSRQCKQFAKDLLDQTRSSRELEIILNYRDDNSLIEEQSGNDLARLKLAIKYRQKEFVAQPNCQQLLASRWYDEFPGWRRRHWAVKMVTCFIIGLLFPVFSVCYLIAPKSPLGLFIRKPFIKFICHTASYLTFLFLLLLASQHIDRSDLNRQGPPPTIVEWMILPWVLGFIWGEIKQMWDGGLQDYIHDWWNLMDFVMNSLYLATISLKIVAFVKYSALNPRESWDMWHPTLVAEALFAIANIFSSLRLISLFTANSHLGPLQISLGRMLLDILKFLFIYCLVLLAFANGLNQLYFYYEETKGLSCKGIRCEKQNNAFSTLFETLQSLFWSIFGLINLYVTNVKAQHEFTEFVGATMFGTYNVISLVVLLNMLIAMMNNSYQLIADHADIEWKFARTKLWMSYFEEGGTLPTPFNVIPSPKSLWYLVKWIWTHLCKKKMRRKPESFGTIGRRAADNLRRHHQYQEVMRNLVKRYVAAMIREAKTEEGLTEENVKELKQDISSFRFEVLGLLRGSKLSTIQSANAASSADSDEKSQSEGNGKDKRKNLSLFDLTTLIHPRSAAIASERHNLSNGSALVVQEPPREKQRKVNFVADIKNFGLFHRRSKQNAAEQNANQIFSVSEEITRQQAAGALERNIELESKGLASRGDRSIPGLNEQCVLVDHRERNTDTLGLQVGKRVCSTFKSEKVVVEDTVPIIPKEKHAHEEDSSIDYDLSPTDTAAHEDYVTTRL

[19] = target: Induced myeloid leukemia cell differentiation protein Mcl-1 (Homo sapiens, UniProt Q07820); format: functional
Induced myeloid leukemia cell differentiation protein Mcl-1, sequence (Q07820 whole entry): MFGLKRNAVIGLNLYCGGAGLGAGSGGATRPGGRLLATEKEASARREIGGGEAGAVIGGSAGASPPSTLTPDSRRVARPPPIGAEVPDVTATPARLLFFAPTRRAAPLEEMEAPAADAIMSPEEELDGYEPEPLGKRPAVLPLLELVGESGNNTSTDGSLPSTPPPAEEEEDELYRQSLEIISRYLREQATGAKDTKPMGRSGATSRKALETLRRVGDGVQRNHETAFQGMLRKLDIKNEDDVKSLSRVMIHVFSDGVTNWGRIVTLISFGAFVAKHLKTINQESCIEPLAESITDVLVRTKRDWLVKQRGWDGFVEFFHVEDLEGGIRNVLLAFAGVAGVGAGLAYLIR

Glyceraldehyde-3-phosphate dehydrogenase, sequence (P04406 whole entry): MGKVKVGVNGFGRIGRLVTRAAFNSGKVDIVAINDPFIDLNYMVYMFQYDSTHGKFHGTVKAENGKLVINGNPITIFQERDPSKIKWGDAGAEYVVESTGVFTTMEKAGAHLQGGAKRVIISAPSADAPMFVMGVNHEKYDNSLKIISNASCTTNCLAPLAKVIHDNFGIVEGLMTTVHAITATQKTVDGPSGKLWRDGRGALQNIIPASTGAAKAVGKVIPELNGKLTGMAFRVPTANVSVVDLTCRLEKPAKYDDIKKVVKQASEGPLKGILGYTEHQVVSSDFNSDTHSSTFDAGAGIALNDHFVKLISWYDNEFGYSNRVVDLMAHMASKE
Voltage-dependent T-type calcium channel subunit alpha-1H, sequence (O95180 whole entry): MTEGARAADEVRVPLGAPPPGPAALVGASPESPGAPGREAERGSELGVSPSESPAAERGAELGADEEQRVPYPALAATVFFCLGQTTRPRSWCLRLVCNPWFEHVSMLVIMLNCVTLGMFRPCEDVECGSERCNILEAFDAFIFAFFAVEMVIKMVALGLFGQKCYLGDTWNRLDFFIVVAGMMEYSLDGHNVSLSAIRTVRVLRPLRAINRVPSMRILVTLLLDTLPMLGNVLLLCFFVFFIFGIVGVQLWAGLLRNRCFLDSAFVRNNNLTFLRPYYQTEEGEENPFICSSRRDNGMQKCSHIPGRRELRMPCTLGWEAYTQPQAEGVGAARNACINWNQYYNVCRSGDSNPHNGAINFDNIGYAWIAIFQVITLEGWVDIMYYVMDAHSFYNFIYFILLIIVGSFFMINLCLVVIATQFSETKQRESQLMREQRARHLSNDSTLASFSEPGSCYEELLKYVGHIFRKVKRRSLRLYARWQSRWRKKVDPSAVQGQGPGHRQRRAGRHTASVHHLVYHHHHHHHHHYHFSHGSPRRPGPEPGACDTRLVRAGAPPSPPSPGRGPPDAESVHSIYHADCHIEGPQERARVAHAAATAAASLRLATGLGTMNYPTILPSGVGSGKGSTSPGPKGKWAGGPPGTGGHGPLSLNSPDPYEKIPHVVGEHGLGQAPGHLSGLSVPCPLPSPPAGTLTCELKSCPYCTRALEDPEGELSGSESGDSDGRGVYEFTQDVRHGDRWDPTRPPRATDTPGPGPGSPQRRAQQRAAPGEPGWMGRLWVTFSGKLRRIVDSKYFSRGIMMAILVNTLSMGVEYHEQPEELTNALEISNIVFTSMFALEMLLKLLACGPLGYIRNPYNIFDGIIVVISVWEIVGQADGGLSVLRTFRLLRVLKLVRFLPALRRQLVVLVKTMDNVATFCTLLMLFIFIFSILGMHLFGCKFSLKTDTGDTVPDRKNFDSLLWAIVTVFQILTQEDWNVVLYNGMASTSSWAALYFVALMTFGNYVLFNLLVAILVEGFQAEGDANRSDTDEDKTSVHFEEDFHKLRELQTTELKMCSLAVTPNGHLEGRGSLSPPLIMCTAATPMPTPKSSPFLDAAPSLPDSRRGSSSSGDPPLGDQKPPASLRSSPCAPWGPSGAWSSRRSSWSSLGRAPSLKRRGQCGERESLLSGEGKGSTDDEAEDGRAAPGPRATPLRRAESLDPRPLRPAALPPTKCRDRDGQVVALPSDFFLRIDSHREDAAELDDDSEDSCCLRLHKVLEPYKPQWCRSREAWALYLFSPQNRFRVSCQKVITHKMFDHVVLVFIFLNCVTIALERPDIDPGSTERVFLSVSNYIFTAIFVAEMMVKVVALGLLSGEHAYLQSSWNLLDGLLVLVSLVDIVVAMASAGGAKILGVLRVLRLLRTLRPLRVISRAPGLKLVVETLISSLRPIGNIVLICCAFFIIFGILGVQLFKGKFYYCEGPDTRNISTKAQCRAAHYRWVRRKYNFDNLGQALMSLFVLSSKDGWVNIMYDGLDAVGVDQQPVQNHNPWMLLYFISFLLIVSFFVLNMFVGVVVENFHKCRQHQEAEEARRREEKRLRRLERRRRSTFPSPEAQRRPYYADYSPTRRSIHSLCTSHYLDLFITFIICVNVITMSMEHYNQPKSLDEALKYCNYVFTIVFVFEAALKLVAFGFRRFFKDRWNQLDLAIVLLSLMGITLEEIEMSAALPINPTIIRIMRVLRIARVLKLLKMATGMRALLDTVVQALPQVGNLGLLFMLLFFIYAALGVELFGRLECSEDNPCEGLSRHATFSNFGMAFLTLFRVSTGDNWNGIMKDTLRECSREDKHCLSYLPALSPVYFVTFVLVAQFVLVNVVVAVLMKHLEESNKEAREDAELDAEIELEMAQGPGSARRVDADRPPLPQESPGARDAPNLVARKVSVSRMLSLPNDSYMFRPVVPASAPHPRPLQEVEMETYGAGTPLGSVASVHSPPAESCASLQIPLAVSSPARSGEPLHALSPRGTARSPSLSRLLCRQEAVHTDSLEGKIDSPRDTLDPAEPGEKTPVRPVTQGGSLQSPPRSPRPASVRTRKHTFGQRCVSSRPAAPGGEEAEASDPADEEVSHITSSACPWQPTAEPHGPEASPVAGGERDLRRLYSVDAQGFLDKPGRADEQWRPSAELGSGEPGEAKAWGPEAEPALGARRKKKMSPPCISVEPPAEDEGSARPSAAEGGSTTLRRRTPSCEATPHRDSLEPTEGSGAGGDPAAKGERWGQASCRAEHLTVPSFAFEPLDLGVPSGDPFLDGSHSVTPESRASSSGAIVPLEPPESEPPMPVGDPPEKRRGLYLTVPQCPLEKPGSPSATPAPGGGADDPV
Luciferin 4-monooxygenase, sequence (P08659 whole entry): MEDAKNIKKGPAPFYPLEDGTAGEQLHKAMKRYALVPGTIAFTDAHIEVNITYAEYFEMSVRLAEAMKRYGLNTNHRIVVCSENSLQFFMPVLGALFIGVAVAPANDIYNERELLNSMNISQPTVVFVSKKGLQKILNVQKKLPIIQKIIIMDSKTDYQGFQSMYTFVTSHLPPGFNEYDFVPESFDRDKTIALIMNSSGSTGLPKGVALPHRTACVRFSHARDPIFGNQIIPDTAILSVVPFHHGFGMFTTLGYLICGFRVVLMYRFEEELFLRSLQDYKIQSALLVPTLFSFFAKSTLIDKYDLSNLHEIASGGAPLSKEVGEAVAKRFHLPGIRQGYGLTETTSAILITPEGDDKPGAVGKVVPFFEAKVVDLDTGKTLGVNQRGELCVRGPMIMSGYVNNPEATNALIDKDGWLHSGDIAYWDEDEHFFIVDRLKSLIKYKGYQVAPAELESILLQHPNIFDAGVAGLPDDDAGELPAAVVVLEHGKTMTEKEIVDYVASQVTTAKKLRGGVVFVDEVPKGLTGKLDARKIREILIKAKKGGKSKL

## Fc1ccc(CCNCc2ccccc2Cl)cc1
[1]
  EC50: > 50 µM (active)

## CN1CCN(CCCNC(=O)c2ccc(/C=C3/Sc4ccccc4N(Cc4cccc(Cl)c4)C3=O)cc2)CC1
[2]
  EC50: 5.71 µM (active)
[3]
  AC50: 14 µM (active)
[4]
  EC50: 0.11 µM (active)

## CCN1C(=O)/C(=C/c2c(C)nn(C)c2C)SC1=S
[5]
  EC50: 254 µM (inconclusive)
[6]
  EC50: 189 µM (inconclusive)

## COc1ccc(NC(=O)C(Cc2ccccc2)n2cccc2)cc1 (stereo unspecified)
[1]
  EC50: > 50 µM (active)

## Cc1ccc(S(=O)(=O)NCC(=O)N(CC(=O)NCc2ccco2)Cc2ccc3c(c2)OCO3)cc1
[7]
  EC50: 3.4 µM (active)

## COc1cccc(N2CCN(C3=C(Cl)C(=O)N(c4cccc(C)c4)C3=O)CC2)c1
[8]
  IC50: > 50 µM (inconclusive)

## O=C1C(Cl)=C(N2CCN(C/C=C/c3ccccc3)CC2)C(=O)N1c1cccc(C(F)(F)F)c1
[8]
  IC50: > 50 µM (inconclusive)

## COc1cc(/C=C2/C(=O)NN(c3cccc(F)c3)C2=O)ccc1OC(=O)c1ccco1
[9]
  EC50: > 112 µM (not active)
cells
  IC50: 16.7 µM (active)
[10]
  EC50: > 112 µM (not active)

## Cc1cccc(N2CCN(Cc3ccc([N+](=O)[O-])o3)CC2)c1C
[2]
  EC50: > 60 µM (not active)
cells
  IC50: 0.37 µM (active)
[4]
  EC50: 1.36 µM (active)

## Cc1ccc(Cn2c(=N)c(C(=O)NCCN3CCOCC3)cc3c(=O)n4ccccc4nc32)cc1
[1]
  EC50: > 50 µM (active)

## CNC(=O)NC(=O)COC(=O)c1ccc(-n2c(C)ccc2C)cc1
[5]
  EC50: > 300 µM (not active)
[6]
  EC50: > 300 µM (not active)
[11]
  EC50: > 195 µM (not active)

## CN1CCN(CC(O)COc2ccc(C34CC5CC(CC(C5)C3)C4)cc2)CC1 (stereo unspecified)
[3]
  AC50: 10.5 µM (active)

## FC(F)(F)C1CC(c2cccs2)Nc2ncnn21 (stereo unspecified)
[12]
  IC50: 0.904 µM (not active)

## CC1CCc2c(sc3c2C2=NS(=O)(=O)CCN2C=N3)C1 (stereo unspecified)
[12]
  IC50: 9.53 µM (not active)

## O=C1C(Cl)=C(N2CCN(CCO)CC2)C(=O)N1c1ccc(Cl)nc1
[8]
  IC50: > 50 µM (inconclusive)

## COC(=O)COc1ccc2c(-c3ccc(OC)cc3)cc(=O)oc2c1
cells
  IC50: 1.43 µM (active)

## Nc1nc2ccccc2cc1-c1cccs1
[1]
  EC50: > 50 µM (active)

## Cn1c(=O)cc(SCC(=O)N2CCN(C3CCCCC3)CC2)c2ccccc21
[13]
  IC50: > 20 µM (inactive)
[1]
  EC50: > 50 µM (active)

## CCOC(=O)C1(CC2CCCCO2)CCN(C(=O)Nc2ccc(C)c(C)c2)CC1 (stereo unspecified)
[12]
  IC50: > 50 µM (not active)

## COc1ccc(C#Cc2cnc3c(c2)C(=O)N([C@H](C)CO)C[C@H](C)[C@H](CN(C)S(=O)(=O)c2cccc(F)c2)O3)cc1OC
[14]
  AC50: 1.8 µM (active)
[15]
  AC50: 1.38 µM (active)
[16]
  AC50: 0.774 µM (active)
[17]
  AC50: 1.17 µM (active)

## CN1Cc2c(c(C#N)c(N)n(C)c2=S)CC1(C)C
[5]
  EC50: 35.4 µM (active)
[6]
  EC50: 29.1 µM (active)

## CCCCN(CC)CC/N=c1/c(N2CCN(C(=O)OCC)CC2)c(O)c1=O
[18]
  EC50: 1.68 µM (active)
[19]
  IC50: 0.433 µM (active)

## CC(C)(C)[S@+]([O-])N1Cc2cc(C(=O)N[C@@H]3CCN(Cc4ccccc4)C3)nc(-c3cccc(-c4cccnc4)c3)c2[C@@H]1CCO
[14]
  AC50: 2.62 µM (active)
[15]
  AC50: 1.93 µM (active)
[16]
  AC50: 1.99 µM (active)
[17]
  AC50: 1.98 µM (active)
